In patent publication US7485647B2, “2-aminoquinoline derivatives” (Banyu Pharmaceutical Co., Ltd., priority 2003, dated 2009):

The compounds below were run against T1, human MCH-1R (Homo sapiens, UniProt Q99705) (assay: MCH binding inhibition test). Conditions: membranes of MCH-1R expressing CHO-K1 cells, 50 pM [125I]MCH, 25° C., one hour; read-out: IC50 (50% inhibition concentration to specific [125I]MCH binding).
T1 construct: expressed in transfected cells; host or cells: CHO-K1 (American Type Culture Collection)
Protocol: A human MCH-1R encoding cDNA sequence [FEBS Letters, Vol. 398, p. 253 (1996); Biochimica et Biophisica Acta, Vol. 1401, p. 216 (1998)] was cloned to plasmid vector pEF/mic/cyto (Invitrogen Corporation). The obtained expression vector was transfected to a host cell CHO-K1 (American Type Culture Collection) using lipofectamine plus reagent (Life Technology Inc.) to provide MCH-1R expression cells.
Membrane samples prepared from the MCH-1R expression cells were incubated with each test compound and 50 pM of [^125I]MCH (NEN Co.), in an assay buffer (50 mM Tris buffer comprising 10 mM magnesium chloride, 2 mM ethylenediamine tetraacetate, 0.01% bacitracin and 0.2% bovine serum albumin; pH 7.4) at 25° C. for an hour, followed by filtration through Glass Filter GF/C (Wattman Co.). After washing the glass filter with 50 mM Tris buffer (pH7.4) comprising 10 mM magnesium chloride, 2 mM ethylenediamine tetraacetate and 0.04% Tween-20, radio activity on the glass filter was measured. Non-specific binding was measured in the presence of 1 μM human MCH and 50% inhibition concentration (IC50 value) of each test compound to specific [^125I] MCH binding was determined.

T1 sequence (Q99705 whole entry): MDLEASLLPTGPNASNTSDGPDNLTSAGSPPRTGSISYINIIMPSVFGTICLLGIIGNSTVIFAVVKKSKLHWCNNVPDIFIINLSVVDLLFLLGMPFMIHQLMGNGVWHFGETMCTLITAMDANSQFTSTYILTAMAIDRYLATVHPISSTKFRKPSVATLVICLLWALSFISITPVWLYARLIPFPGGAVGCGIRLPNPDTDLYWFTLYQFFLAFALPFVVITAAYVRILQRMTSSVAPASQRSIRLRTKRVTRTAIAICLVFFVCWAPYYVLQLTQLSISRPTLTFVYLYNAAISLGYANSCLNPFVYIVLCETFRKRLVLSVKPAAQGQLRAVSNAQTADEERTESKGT

Row | IC50 [nM] | SMILES
1 | 4.1 | CC(C)C(=O)N(C)[C@@H]1CCN(c2ccc3cc(NC(=O)c4ncc(-c5ccccc5)cn4)ccc3n2)C1 [Example 3, N-(2-[(3R)-3-[isobutyryl(methyl)amino]-1-pyrrolidinyl]-6-quinolinyl)-5-phenyl-2-pyrimidinecarboxamide]
2 | 8 | CN1C(=O)CCC12CCN(c1ccc3cc(NC(=O)c4ncc(-c5ccc(F)cc5)cn4)ccc3n1)C2 (stereo not drawn) [Example 1, 5-(4-Fluorophenyl)-N-[2-(1-methyl-2-oxo-1,7-diazaspiro[4,4]-nonan-7-yl)-6-quinolinyl]-2-pyrimidinecarboxamide]
3 | 3.7 | CN(C)C(=O)N(C)[C@@H]1CCN(c2ccc3cc(NC(=O)c4ncc(-c5ccccc5)cn4)ccc3n2)C1 [Example 9, N-(2-[(3R)-3-[[(dimethylamino)carbonyl](methyl)amino]-1-pyrrolidinyl]-6-quinolinyl)-5-phenyl-2-pyrimidinecarboxamide]
